Test results from patent US8232289B2, “Spiropiperidine compounds as ORL-1 receptor antagonists” (Eli Lilly and Company, priority 2009, dated 2012).
Marks after values point to notes of the source that are not given here.

Tests used:
[1] = Rat hepatic microsomal glutathione trapping assay; format: in vitro ADME; conditions: hepatic microsomal homogenate, glutathione as nucleophile
Source text: Assuming that reactive metabolites may play a role in clinical IDRs, minimizing the potential for oxidative bioactivation has been proposed as a means of improving the overall safety profile of compounds containing structural features associated with such reactivity. (see Baillie, Thomas A., Approaches to the Assessment of Stable and Chemically Reactive Drug Metabolites in Early Clinical Trials, Chemical Research in Toxicology, vol 22(2) 2009.) To this end, representative compounds of the present invention and related compounds are screened using a rat hepatic microsomal trapping assay, using glutathione as an endogenous nucleophile, to understand the potential for oxidative bioactivation of the thienyl moiety. […] Of the compounds tested, those wherein R^2a and R^2b are fluoro are found to not show glutathione conjugate formation.

[2] = molecular target: T1, cloned human ORL1/nociceptin receptors (Homo sapiens, UniProt P41146); assay: Functional blockade of agonist-mediated G-protein activation, GTP-γ-[35S] binding; format: biochemical; conditions: stimulation with 300 nM nociceptin/OFQ; read-out: Kb for the ORL-1 receptor (antagonist affinity)
T1 construct: expressed in transfected cells
Source text: Agonist-mediated stimulation of G-protein coupled receptors results in the activation of membrane associated Gαβγ-protein heterotrimer complexes, and represents the first step in the transduction of extracellular signals to modification of intracellular pathways. The first step in activation of receptor-mediated activation of Gαβγ-proteins heterotrimer is the exchange of Gα subunit bound guanosine diphoshpate (GDP) for guanosine triphosphate (GTP). The binding of GTP to the Gα subunit causes dissociation of the heterotrimer subunits, Gβ and Gγ, resulting in the modulation of several intracellular signaling cascades. Measurement of receptor-mediated G-protein activation can be measured using the non-hydrolyzable radiolabeled analog of GTP, GTP-γ-[35S]. Utilizing this methodology, antagonist affinity (Kb) is measured in membranes expressing cloned human ORL1/nociceptin receptors using a GTP-γ-[35S] binding assay according to previously described protocols with minor modifications (DeLapp et al., J Pharmacol Exp Ther. 1999 May; 289(2):946-55; Ozaki et al., Eur J Pharmacol. 2000 Aug. 18; 402(1-2):45-53). Assays are conducted in a 200-μl volume with the following buffer composition: 100 mM NaCl, 20 mM HEPES, 5 mM MgCl2, 1 mM EDTA, 0.1% BSA, 3 μM GDP, 0.5 nM [^35S]GTPγS. ORL1 receptor membrane suspension is added at a concentration of 20 μg protein per well and receptor stimulation is achieved using 300 nM nociceptin/OFQ. Wheat germ agglutinin coated SPA beads (Amersham, Arlington Hts., IL) are added at 1 mg per well to detect membrane-bound [^35S]GTPγS. Plates are sealed and incubated for 2 hr. at room temperature. Plates are then placed at 4° C. overnight to allow the SPA beads to settle and then counted in a Wallac Microbeta. Specific [^35S]GTPγS binding is determined as the difference in CPM observed in the absence and presence of 10 μM unlabeled GTPγS. Data are plotted as the percent of specific [^35S]GTPγS bound. Curves are plotted as the percent of specific binding and IC50 values are determined using a sigmoidal dose response curve with variable slope. […]

[3] = system: male NIH-Swiss mice; assay: Forced-swim test in mice (mFST); format: in vivo
Source text: (§1) mFST is an established in vivo assay for antidepressant activity (Li et al. J Pharmacol Exp Ther. 319(1):254-9, 2006.). […] The mFST was used to evaluate potential antidepressant-like activity of novel nociceptin/ORL1 antagonists according to previously published methods (Li et al. J Pharmacol Exp Ther. 319(1):254-9, 2006.). Briefly, male NIH-Swiss mice (Harlan Sprague-Dawley, Indianapolis, Ind.) weighing between 25-30 g are used. Group housed animals are removed from the vivarium to the testing area in their own cages and allowed to adapt to the new environment for at least 1 hour before testing. Alternatively, male 129S6 wild type and nociceptin/ORL1 receptor knockout mice were used to confirm dependence of the response to compound was nociceptin/ORL1 receptor dependent. All compounds are prepared in 20% Captisol, 25 mM phosphate buffer, pH 2.0 on the day of use. Mice are placed in a cylinder (diameter: 10 cm; height: 25 cm) filled with 6 cm of water (22-25° C.) for 6 min. The duration of immobility during the last 4 min. of the 6 min. period of the test was scored. A mouse is recorded as immobile when floating motionless or making only those movements necessary to keep its head above water.

[4] = system: 129S6 wild type and nociceptin/ORL1 receptor knockout mice; assay: mFST in wild type and ORL-1 knockout mice; format: in vivo
Source text: as §1
Yet further, these effects of reduced immobilization times are not observed when ORL-1 knockout mice, a strain of mice engineered to lack the ORL-1 receptor, are used, showing that the effect is indeed mediated by the ORL-1 receptor.

[5] = system: Male Sprague-Dawley rats; assay: Rat dural plasma protein extravasation (PPE) model, oral dosing; format: in vivo; conditions: 1.0 mg/kg po
Procedure: All test compounds are prepared in a vehicle solution containing 20% Captisol in 25 mM phosphate buffer (pH 2.0). The positive control compound, sumatriptan, is dissolved in saline. Male Sprague-Dawley rats from Harlan Laboratories (250 to 350 g), that have been fasted overnight, are dosed with test compound, sumatriptan or vehicle by oral gavage (2 mL/kg). Fifty min. post-dose the rats are anesthetized with Nembutal (60 mg/kg, ip) and placed in a stereotaxic frame with the incisor bar set at −2.5 mm. Following a mid-line sagittal scalp incision, 2 pairs of bilateral holes were drilled through the skull (3.2 mm posteriorly, 1.8 and 3.8 mm laterally, all coordinates referenced to bregma). Pairs of stainless steel stimulating electrodes (Rhodes Medical Systems Inc), insulated except at the tips, are lowered through the holes in both hemispheres to a depth of 9.2 mm below the dura.
A solution of fluoroscein isothiocyanate (FITC) dye-labeled bovine serum albumin (BSA) (FITC-BSA) (20 mg/kg, iv), is injected into the femoral vein 2 minutes prior to electrical stimulation of the trigeminal ganglion to function as the marker for protein extravasation. Sixty minutes following dosing with test compound or vehicle, the left trigeminal ganglion is electrically stimulated for 5 minutes at a current intensity of 1.0 mA (5 Hz, 5 minutes duration).
Five minutes following stimulation, the rats are killed by exsanguination with 40 mL of saline which also rinses residual FITC/BSA out of the blood vessels. The top of the skull is removed to collect the dural membranes. The membrane samples are removed from both hemispheres, rinsed with water, and spread flat on microscope slides. The slides are dried for 15 minutes on a slide warmer and cover-slipped with a 70% glycerol/water solution.
A fluorescence microscope equipped with a grating monochromator and a spectrophotometer is used to quantify the amount of FITC-BSA dye in each dural sample. The microscope is equipped with a motorized stage interfaced with a personal computer. This facilitates the computer-controlled movement of the stage, with fluorescence measurements at 25 points (500 μm steps) on each dural sample. The extravasation induced by electrical stimulation of the trigeminal ganglion is an ipsilateral effect (that is occurs only on the side of the dura in which the trigeminal ganglion is stimulated). This allows the other (unstimulated) half of the dura to be used as a control. The extravasation ratio (that is the ratio of the amount of extravasation in the dura from the stimulated side compared to the unstimulated side) is calculated. Animals dosed with vehicle alone or an ineffective dose of the test compound have an extravasation ratio of approximately 2, while totally effective treatments result in a ratio of approximately 1.
Results are expressed as mean values with standard errors of the mean (±SEM). All statistical evaluations are conducting utilizing ANOVA followed by comparison to the control group by Dunnett's Method. Statistical significance is assumed when p<0.05. Statistical analyses are performed using JMP statistical analysis software (SAS Research Institute, version 6.0.2).

[6] = system: wild type and ORL knockout mice; assay: Blockade of fasting-induced hyperphagia in mice; format: in vivo
Source text: Blockade of fasting-induced hyperphagia in rodents is an accepted model for hyperphagic eating disorders. […] Mice are individually housed a minimum of 3 days prior to the onset of testing to eliminate any effects of stress due to the change from group to individual housing. Three mice/genotype are randomly assigned to each treatment group on the test day. Pre-fast body weight measurements are taken, and food is then removed from cages overnight. Mice are fasted for approximately 15 hr. The next morning, the mice are given one of three doses of drug or vehicle via oral gavage 30 min. prior to gaining access to food. Drugs are dissolved in 20% Captisol dissolved in 25 mM phosphate buffer, pH 2.0. Measurements of body weight are taken immediately prior to drug treatment or 24 hr. after access to food is restored. […] Measurements of food intake are recorded 1 hr following access to food, as indicated, by weight of food remaining at 1 hr. It should be noted that food intake measured is during the light phase, a time during which mice are typically at rest and not normally eating. Following initial testing, mice are rested for 1 week with access to unlimited chow.

T1 sequence (P41146 whole entry): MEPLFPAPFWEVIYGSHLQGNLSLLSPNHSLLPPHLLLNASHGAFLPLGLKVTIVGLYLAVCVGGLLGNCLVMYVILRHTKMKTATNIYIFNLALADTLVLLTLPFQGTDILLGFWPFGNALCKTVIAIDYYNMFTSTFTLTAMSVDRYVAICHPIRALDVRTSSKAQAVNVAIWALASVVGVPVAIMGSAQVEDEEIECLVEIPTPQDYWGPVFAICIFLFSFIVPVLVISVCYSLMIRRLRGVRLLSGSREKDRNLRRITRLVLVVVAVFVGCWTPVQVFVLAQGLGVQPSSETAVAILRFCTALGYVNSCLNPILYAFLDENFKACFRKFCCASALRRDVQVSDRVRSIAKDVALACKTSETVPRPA

Q: With Cc1nn(-c2c(F)cccc2C(N)=O)cc1CN1CCC2(CC1)OCCc1c2sc(F)c1F.O=C(O)C(O)C(O)C(=O)O [3-fluoro-2-[4-[(2,3-difluorospiro[4,5-dihydrothieno[2,3-c]pyran-7,4′-piperidine]-1′-yl)methyl]-3-methyl-pyrazol-1-yl]benzamide (L) Tartrate, reference compound] as the compound, how does the Glutathione conjugate formation [1] read?
A: Yes

Q: With Cc1nn(-c2c(F)cccc2C(N)=O)cc1CN1CCC2(CC1)OCCc1cc(F)sc12.O=C(O)C(O)C(O)C(=O)O [3-fluoro-2-[4-[(2-fluorospiro[4,5-dihydrothieno[2,3-c]pyran-7,4′-piperidine]-1′-yl)methyl]-3-methyl-pyrazol-1-yl]benzamide (L) Tartrate, reference compound] as the compound, how does the Glutathione conjugate formation [1] read?
A: Yes

Q: For Cc1nn(-c2ncccc2CO)cc1CN1CCC2(CC1)OCC(F)(F)c1cc(Cl)sc12 [Example 1, [2-[4-[(2-Chloro-4,4-difluoro-spiro[5H-thieno[2,3-c]pyran-7,4′-piperidine]-1′-yl)methyl]-3-methyl-pyrazol-1-yl]-3-pyridyl]methanol (L)-tartrate], which Kb [2] is on record?
A: 0.2 nM

Q: Which Glutathione conjugate formation [1] does the source give for COCc1cccnc1-n1cc(CN2CCC3(CC2)OCC(F)(F)c2cc(F)sc23)c(C)n1.O=C(O)C(O)C(O)C(=O)O [Example 10, 2,4,4-Trifluoro-1′-[[1-[3-(methoxymethyl)-2-pyridyl]-3-methyl-pyrazol-4-yl]methyl]spiro[5H-thieno[2,3-c]pyran-7,4′-piperidine] (L)-Tartrate] here?
A: No

Q: For COCc1cccnc1-n1cc(CN2CCC3(CC2)OCCc2cc(Cl)sc23)c(C)n1.O=C(O)C(O)C(O)C(=O)O [Example 14, 2-Chloro-1′-[[1-[3-(methoxymethyl)-2-pyridyl]-3-methyl-pyrazol-4-yl]methyl]spiro[4,5-dihydrothieno[2,3-c]pyran-7,4′-piperidine] (L)-Tartrate], which Glutathione conjugate formation [1] is on record?
A: Yes

Q: With CN(C)CCCN1c2ccccc2CCc2ccccc21 [Imiprimine, reference compound] as the compound, how does the “Immobilization Time” value ([3]; 15 mg/kg, positive control) read?
A: 96* sec

Q: And the “effect on immobilization time” value ([4]; ORL-1 knockout mice)?
A: reduce immobilization times in both the wild type and knockout mice to an equivalent degree

Q: What about the “effect on immobilization time” value ([4]; wild type mice) of the same compound?
A: reduce immobilization times in both the wild type and knockout mice to an equivalent degree

Q: Which “Extravasation Ratio (mean)” value [5] does the source give for CNS(=O)(=O)Cc1ccc2[nH]cc(CCN(C)C)c2c1 [Sumatriptan, reference compound] here?
A: 1.06*

Q: With CNCCC(Oc1ccc(C(F)(F)F)cc1)c1ccccc1 (stereo not drawn) [fluoxetine, reference compound] as the compound, how does the “Immobilization Time” value ([3]; 10 mg/Kg, alone) read?
A: 168 s

Q: Which results are given for Clc1cccc(N2CCNCC2)c1 [mCPP, meta-chlorophenylpiperazine, reference compound]?
A: effect on fasting-induced hyperphagia ([6]; ORL-1 knockout mouse strain): significantly reduce fasting induced hyperphagia equally in both wild type mice and the ORL-1 knockout mouse strain; effect on fasting-induced hyperphagia ([6]; wild type mice, oral gavage 30 min. prior to food, food intake at 1 hr): significantly reduce fasting induced hyperphagia equally in both wild type mice and the ORL-1 knockout mouse strain
